Results as given in patent US6585988B2, “Reaction product of arginine and p-aminobenzoic acid, cosmetic, and human and animal health compositions thereof” (Epicare Ltd., priority 1998, dated 2003).

Tested on: clinical mastitis
Assay: Field trials: intramammary infusion in mastitis
Assay type: in vivo, cow
Settings: treated one time on the previous day
Excerpt: CDRMREC was infused up the teat duct of all 4 quarters of a cow that had clinical mastitis in the left hindquarter. […] Additionally, because of a differential in the vacuum when milking the cow, infected discharge from the left hindquarter contaminated the left fore quarter which then began to show symptoms of clinical mastitis (flaking in the milk). The left fore quarter had not been infused with erythromycin. […] All signs of swelling were gone. The milk from all quarters was normal and untainted.
Treatment consisted of six 10 ml intramamery ductal infusions of CDRMREC in the afflicted quarter following each milking.
A Jersey cow was suffering from mastitis in the right forequarter and had received an antibiotic infusion in that quarter. […] The next day, after the PM milking, she received only one 10 ml infusion of CDRMREC in each of her quarters.
Her milk appeared normal. Three days later, the swelling was still present and like a flattened golf ball but the milk tested normal.

Structure (SMILES): CC[C@H]1OC(=O)[C@H](C)[C@@H](O[C@H]2C[C@@](C)(OC)[C@@H](O)[C@H](C)O2)[C@H](C)[C@@H](O[C@@H]2O[C@H](C)C[C@H](N(C)C)[C@H]2O)[C@](C)(O)C[C@@H](C)C(=O)[C@H](C)[C@@H](O)[C@]1(C)O [erythromycin]
- swelling of afflicted quarter: the swelling still remained
